Values of other authors as cited in patent US20250205268A1, “TREATMENT OF VIRUSES WITH ANTIVIRAL NUCLEOSIDES” (priority 2021, published 2025).

Test system: pestivirus and hepacivirus
Conditions: […] CHEMOTHER, 2003, 47 (1): 244-54; cited from earlier work

For `O=c1nc(NO)ccn1[C@@H]1O[C@H](CO)[C@@H](O)[C@H]1O` [β-D-N(4)-hydroxycytidine, 1-((2R,3R,4S,5R)-3,4-dihydroxy-5-(hydroxymethyl)tetrahydrofuran-2-yl)-4-(hydroxyamino)pyrimidin-2 (1H)-one], the antiviral activities is given as “antipestivirus and antihepacivirus activities”.
